{"source": "patent US20080269161A1", "about": "“Compositions and Methods Relating to Mitochondrial Hyperpolarization in Neurological Disease” (priority 2005, published 2008)", "key": {"[1]": {"tested_on": "CA1 pyramidal neurons in hippocampal slices", "design": "species or system rodent", "protocol": "CA1 pyramidal neurons were exposed to 1 μM cPAF or vehicle for 30-60min and simultaneously imaged and recorded by whole-cell patch clamp before and after delivery of a high-frequency stimulus (HFS: three 1s, 100 Hz trains, every 20 s) applied to Schaffer collateral axons via a bipolar stimulating electrode planted in the stratum radiatum. (A) Dendrite beading in a cPAF-exposed cell 45min after HFS, with no disruption of dendrite or spine morphology in control cells. […] (C) Excitatory synaptic transmission between Shaffer collateral axons and CA1 pyramidal neurons is strongly potentiated following HFS in control slices. […] (EPSP traces at baseline and 40 min from representative control cell and cPAF-treated beaded cell are at right.) […]\nExplant hippocampal slices are exposed to HIV-1 neurotoxins±agents that reverse mitochondrial hyperpolarization. Beading and LTP are then be measured:\nHippocampal slice preparation: Brains from anesthetized P14-28 rodents are rapidly removed and cooled in sucrose based artificial cerebrospinal fluid (ACSF) containing in mM: 110 sucrose, 60 NaCl, 3 KCl, 1.25 NaH2PO4, 28 NaHCO3, 10 D-glucose, 0.5 CaCl2, 7 MgSO4, 0.6 ascorbate. The brains are blocked and fixed to a specimen stage with cyanoacrylate. Coronal slices (250-400 μm in thickness) are cut with a vibroslicer (World Precision Instruments, Fla., USA) equipped with a Peltier cooling system. The middle four to six slices of each hippocampus (with the entorhinal cortex removed) are placed into a holding chamber prior to use.\nMeasuring dendritic beading and postsynaptic potentials in single CA1 cells in hippocampal slices: Dendritic arbors of individual CA1 pyramidal cells are imaged while simultaneously recording excitatory postsynaptic potentials in the same cell by patch clamp recordings in whole-cell configuration. Recording pipettes ([…] resistance) are pulled from 1.5 mm borosilicate glass using a horizontal Flaming/Brown micropipette puller (Sutter Instrument Co, Calif.), fire-polished, and filled with intracellular recording solution (in mM: KCl 20, potassium gluconate 130, EGTA 0.5, HEPES 10, MgSO4 2, ATP 2.5, GTP 0.5, pH 7.3). In order to visualize dendrites of the recorded cell, Alexa 568 hydrazide (30 μM) is included in the recording pipette and is injected by small negative current pulses for 15-20 min prior to recording in order to fill the dendritic arbor. Hippocampal slices are bathed in artificial CSF (containing, in mM: NaCl 125, KCl 2.5, NaH2PO4 1.25, NaHCO3 25, CaCl2 2, MgCl2 1, D-glucose 25, oxygenated and buffered with 5% CO2). Membrane potentials of CA1 pyramidal cells are recorded in current clamp mode, and postsynaptic potentials are evoked by test pulses of constant-current stimulation applied via a bipolar stimulating electrode placed 50-200 μm away in the stratum radiatum. Bicuculline (10 μM) is included in the bath to isolate excitatory postsynaptic potentials. After at least 10 min of consistent baseline recording, a high-frequency LTP induction stimulus (HFS, consisting of four 1 s, 100 Hz trains delivered every 15 s) is applied. EPSPs are recorded for 60 min following HFS. At the same time, dendrites are imaged at 40× magnification by fluorescence microscopy, using a shutter to limit fluorescent light exposure and prevent phototoxic injury to the slice. Serial images of dendrites are compared to detect development of focal swellings along dendritic shafts following HFS. Cells are scored as beaded if swellings develop along any of their dendrites.\nField potential recording and induction of LTP in hippocampal slices: Single-cell recordings are complemented by extracellular field potential recordings: while single cell recordings allow correlation of electrophysiologic data with dendritic beading in the same cell, extracellular recordings sample responses from populations of dendrites and are less invasive. […]"}, "[2]": {"tested_on": "mitochondrial membrane potential of rat cortical neurons", "type": "cell-based", "details": "neurotoxin alone", "protocol": "Curve fits are non-formulaic software interpolations of the data points.\nChanges in mitochondrial function that could be associated with the increased vesicular activity were evaluated. Mitochondria generate the energy for synaptic transmission in the form of ATP, and as a byproduct of this oxidative phosphorylation, they are also one of the primary producers of intracellular ROS. Two key mitochondrial parameters were examined in response to Tat and PAF: 1) mitochondrial membrane potential (ΔΨm) [as assessed by mitochondrial uptake of the lipophilic cationic dyes tetramethylrhodamine ethyl or methyl ester (TMRE or TMRM respectively)], and 2) ATP production (as measured by luciferase assay). The electronegative mitochondrial membrane potential provides the driving force for calcium buffering and ATP production by the mitochondria, and as such, ΔΨm is frequently used as an indicator of mitochondrial health and energetic capacity. Moreover, fluctuations in ΔΨm can trigger mitochondrial release of pro-apoptotic factors, an event most frequently associated with a loss of ΔΨm.\nMonitoring alterations in ΔΨm with TMRM: In the relevant methods described herein, changes in mitochondrial membrane potential (ΔΨm) in response to Tat or PAF treatment is assessed by TMRM, which must equilibrate across the plasma membrane before entering the mitochondria; and in whole cell applications dye concentration in the mitochondria is dependent on both plasma membrane potential (ΔΨp) and AΨm. At sufficiently low dye concentrations (TMRM =1 nM, i.e. high cell/dye ratio) and normal membrane potentials, ≧95% of the dye is in the mitochondria, and ≦1% in the media, which results in an approximately 100× sensitivity of the dye to ΔΨm over ΔΨp, given equivalent changes in plasma or mitochondrial membrane potential [Rottenberg, H. and S. Wu, Biochim Biophys Acta, 1998. 1404(3): p. 393-40].\nFor these methods, primary rodent neurons are treated with reagent under normal culture conditions for the indicated time period, followed by removal of the media, 1×2 minute wash in pre-warmed 37° C. HBSS plus 10 mM glucose and 10 mM HEPES (HBSS+), then incubation in HBSS+ with 1 nM TMRE/M. Following equilibration of the dye for 20 minutes to ensure distribution across the mitochondrial membrane, the cells are imaged while remaining in the 1 nM TMRE/M solution, as is necessary for a continued dye equilibrium state. Random field images are taken using an Olympus IX-70 microscope and 40× objective (fluorescent excitation: 545; emission: 610) and Apogee KX32ME CCD camera, and the mean relative fluorescent unit (RFU) value of the neuronal soma and processes (excluding mitochondria deficient regions) is quantified using Scanalytics IPLab software."}, "[3]": {"details": "HIV-1 neurotoxin with vehicle treatment"}}, "note": "“Also recorded” adds a separate entry of the source.", "data": [{"smiles": "CCCCCCCCCCCCCCCCOC[C@H](COP(=O)([O-])OCC[N+](C)(C)C)OC(=O)NC", "note": "[PAF, carbamyl-platelet-activating factor]", "values": [{"measurement": "cells with beading elicited by HFS", "setting": "[1]; 1 μM cPAF, 30-60 min", "result": "half of the cells"}, {"measurement": "potentiation of EPSPs after HFS, cells that did not develop dendrite beading", "setting": "[1]; 1 μM cPAF, 30-60 min", "result": "smaller potentiation"}, {"measurement": "potentiation of EPSPs after HFS, cells whose dendrites did bead", "setting": "[1]; 1 μM cPAF, 30-60 min", "result": "failure of long-term potentiation; also recorded: not potentiated at all"}, {"measurement": "Beading Prediction", "setting": "[1]; [3]", "result": "Occurs"}, {"measurement": "LTP Prediction", "setting": "[1]; [3]", "result": "Failure"}, {"measurement": "Δψm", "setting": "[1]; [3]", "result": "Hyperpolarized"}, {"measurement": "effect on ΔΨm", "setting": "[2]", "result": "dose dependent increases; also recorded: dose-dependent rise"}]}]}
